Measurements from PMC3634016, “The Calmodulin-Binding, Short Linear Motif, NSCaTE Is Conserved in L-Type Channel Ancestors of Vertebrate Cav1.2 and Cav1.3 Channels” (PLoS ONE, 2013).

Biological target: T1, Ca^2+-CaM (wild type rat calmodulin) (Rattus norvegicus, UniProt P0DP29)
T1 construct: made in house
Experiment: Isothermal titration calorimetry, peptide into Ca2+-CaM
Assay type: binding
Conditions: peptide titrated into Ca2+-CaM alone; 25 mM Tris-Cl pH 7.5, 75 mM NaCl, 0.5 mM CaCl2; 25°C; one-set-of-sites model; SEM printed separately in figure
Description: All peptides were resuspended in mili-Q deionized water to 1 mM stocks and stored at −80°C in small aliquots.
All ITC recordings were performed on a Microcal ITC200 from Microcal (Northampton, MA) at 25°C. In all experiments the buffer used was 25 mM Tris-Cl pH 7.5, 75 mM NaCl and 0.5 mM CaCl2 and was identical between cell and syringe. […] Data analysis was performed using Origin ITC200 Origin70 module with pre-loaded fitting equations for one- and two-sites models.

Structure (SMILES): CC[C@H](C)[C@H](NC(=O)[C@H](C)NC(=O)[C@H](C)NC(=O)[C@H](CCC(N)=O)NC(=O)[C@H](Cc1c[nH]c2ccccc12)NC(=O)[C@@H](N)CO)C(=O)N[C@@H](CC(=O)O)C(=O)N[C@@H](C)C(=O)N[C@@H](C)C(=O)N[C@@H](CCCNC(=N)N)C(=O)N[C@@H](CCC(N)=O)C(=O)N[C@@H](C)C(=O)N[C@@H](CCCCN)C(=O)N[C@@H](CC(C)C)C(=O)N[C@@H](CCSC)C(=O)NCC(=O)N[C@@H](CO)C(=O)O [NSCaTECav1.2]
- Kd: 830 nM
